Experimental data reported in PMC6327999, “Hydroxyl-substituted double Schiff-base condensed 4-piperidone/cyclohexanones as potential anticancer agents with biological evaluation” (Journal of Enzyme Inhibition and Medicinal Chemistry, 2019).

Tests used:
Format in all cases: cell-based, human
HepG2 cells = assay: Apoptosis assay, Annexin V-FITC/PI flow cytometry; details: 5c treatment for 24 hours, 1.0, 2.0, 4.0 µM, early and late apoptosis
Experimental: HepG2 cells were plated at a density of 1 × 10^5 cells/well in 24-well plates. […] One hundred microliters of such solution (1 × 10^5 cells) was mixed with 5 µL of Annexin V-FITC and 5µL of Propidium Iodide (BD Biosciences, San Jose, CA, USA) according to the manufacturer’s instruction. The mixed solution was gently vortexed and incubated in the dark at room temperature for 15 minutes. Four hundred microliters of 1X binding buffer were then added to each tube and cell apoptosis analysis was performed by flow cytometry (BD FACS Calibur) within 1 hour.

Bax = assay: Western blot, Bax expression; details: HepG2, 3 h, 1.0, 2.0, 4.0 µM, vs negative control
Experimental: (§1) The HepG2 cell lines were treated with different dose of by BAP 5c (1.0, 2.0, 4.0 µM, respectively) for 3 hours, then washed twice with PBS, and lysed in ice-cold modified RIPA buffer containing PMSF (RIPA:PMSF = 100:1; the ultimate density of PMSF is 1.0 mM). The lysates were kept for 30 minutes on the ice, and then centrifuged for 15 min at 12000 rpm/min at 4 °C and the supernatant was collected. The proteins were boiled at 95 °C at 5 min with loading buffer (the volume ratio of protein and the loading buffer is 4:1). Each 50 µg protein of cell lysates were separated by 10% SDS-PAGE gel electrophoresis. The proteins were then transferred onto polyvinylidene fluorides membrane. The membranes were probed with antibodies and visualised using an enhanced chemiluminescence (ECL) detection kit according to the manufacturer instruction.

Bcl-2 = assay: Western blot, Bcl-2 expression; details: HepG2, 3 h, 1.0, 2.0, 4.0 µM, vs negative control
Experimental: as §1

## O=C1/C(=C/c2cc(/N=C/c3ccc(O)c(O)c3O)ccc2F)CNC/C1=C\c1cc(/N=C/c2ccc(O)c(O)c2O)ccc1F [5c]
HepG2 cells
  HepG2 cells apoptosis: dose-dependent apoptosis
Bax
  expression level of Bax: up-regulate the expression level of Bax
Bcl-2
  expression level of Bcl-2: down-regulate the expression level of Bcl-2
